The test system of one data set is male rats. Description: Digestive symptoms after repeated oral administration. It is filed as in vivo, rat. Conditions: 0.1 mg/kg oral, repeated for 4 days. The method, then: Using male rats, aged 6 weeks, general states of the rats were observed after repeating oral administration of the test compound at a dose of 0.1 mg/kg for 4 days. To a control, injectable water which is a medium was administered.

A short description of data set [1]: Systemic clearance after intravenous administration. In kind it is in vivo. The following applies: plasma, cynomolgus monkey, 0.001 mg/mL/kg. The method, then:
Equimolar sodium hydroxide and injectable distilled water were added to each of the test compounds to prepare a 1 mg/mL aqueous solution. The aqueous solution was diluted with physiological saline until the concentration reached 0.001 mg/mL and was rapidly administered at a dose of 0.001 mg/mL/kg to cynomolgus monkey through the cephalic vein. Via heparinized syringes, 2 min, 5 min, 15 min, 30 min, 1 hr, 2 hr, 4 hr, 6 hr, 8 hr and 24 hr after administration, blood was drawn from the cephalic vein (non-administered sites). After centrifugation, blood plasma was sampled and stored at −80° C. before pretreatment. The blood plasma was pretreated by mixing with acetonitrile and centrifuging to remove proteins followed by measurement by LC/MS/MS. Changes of concentration in blood plasma was analyzed using WinNonlin4.0.1 to evaluate the systemic clearance of the test compound.

In data set [2] the test system is spontaneously hypertensive rats. Description: Blood pressure and heart rate measurement in hypertensive rats. In kind it is in vivo, rat. The following applies: continuous intravenous administration for 30 min. The protocol: The blood pressures and heart rates of male spontaneously hypertensive rats were measured. On the day of measurement, indwelling of catheters for blood pressure•heart rate measurement and subject substance administration was carried out under anesthesia with ether. The back of the neck of each rat was incised, a feeding catheter (Atom Medical Corporation) filled with heparinized physiological saline was introduced from the back of the neck; the catheter was inserted into the common carotid artery and internal jugular vein; and the surgical incision was closed. The measurements were conducted in a Bollmann cage under the conscious state and evaluations were carried out after confirming that the individual parameters were stabilized. After confirming the stabilization of blood pressure and heart rate, the test compound was continuously administered intravenously at a flow rate of 5 mL/kg/h for 30 min.
The catheter drawn from the back of the neck was connected to a pressure transducer (DX-200, NIHON KOHDEN CORP.), and the blood pressures and heart rates were measured using a blood pressure amplifier (Gould instrument). The blood pressures and heart rates were recorded on recording paper using a recorder (LINEARCORDER WR3320, GRAPHTEC). The blood pressures and heart rates were converted into values on the recording paper before administration and 2.5, 5, 10, 15, 30, 45 and 60 min after administration. For each individual, rates of increase and decrease in the parameters were evaluated relative to the value before administration (value at 0 min).

The next data set deals with urethral sphincter. Nature of the data set: Relaxation of isolated rat urethra specimens (Magnus system), phenylephrine-induced contraction. It is filed as cell-based. The following applies: for Contractility of the urethral sphincter according to the compound concentration treated: rat urethra specimen. The method, then: Rats were anesthetized with pentobarbital, followed by abdominal incision to remove the bladders and the urethras. The bladder bodies were cut in the longitudinal direction to prepare strip specimens with a size of about 10×3 mm. Additionally, each of the urethras was also cut in the longitudinal direction to prepare specimens with a size of about 10×3 mm. The prepared specimens were suspended in Krebs buffer (37° C., 5 mL), which was aerated with a mixed gas of 95% O2 and 5% CO2. The tension values of the specimens were measured using a Magnus system equipped with an isometric transducer and an amplifier, and the measured values were recorded on a computer via a data collection system.
The specimens were suspended with a load of about 0.5 g. More than 1 hr later, potassium chloride (100 mmol/L) was added to the suspension and the maximal contraction response was observed. After washing with Krebs buffer, the specimens were suspended with a load of about 0.5 g for stabilization. Thereafter, a phenylephrine (100 μmol/L) was added to the suspension to induce the contraction of the specimens. After stabilization of the contraction-inducing response, the test compound was added in a cumulative manner and the response was observed before and after the treatment of the drug.

Data set [3] concerns urinary excretion dysfunction models. Nature of the data set: Urinary excretion dysfunction models, maximal urinary flow rate. The following applies: 60 ng/kg/h continuous intravenous, cynomolgus monkey urinary excretion dysfunction model. It is filed as in vivo. The source says: Urinary excretion dysfunction models were constructed in accordance with the following procedure. After anesthesia of cynomolgus monkeys, the region from the suprapubic area to the abdominal area was shaved, followed by fixing in a dorsal position. The shaved region was disinfected and the four legs were fixed. Using an electrosurgical knife, the skin region from the suprapubic area to the umbilical area and the peritoneal membrane were sequentially incised, followed by damage to the pelvic nerve and removal of the uterus. After the surgical operation, viccillin-containing physiological saline was added dropwise to the incised area. The peritoneal membrane and skin of the incised area were sutured with silk threads and disinfected. Viccillin was administered for 7 consecutive days after surgery. Meloxicam was administered once daily for 7 consecutive days to manage pain in the perioperative period.
The cynomolgus monkeys were seated on monkey chairs, followed by retention of the hands and legs with strings. Injectable water was administered orally, and physiological saline and the test compound (60 ng/kg/h) were continuously administered intravenously to allow urination freely. The maximal urinary flow rate was measured using a urine weighing sensor.

In the case of `C[C@@](O)(C/C=C/[C@H]1CCC(=O)[C@@H]1CCSc1nc(C(=O)O)cs1)CCC(F)=C(F)F` [Compound 17, 2-[(2-{(1R,5R)-2-oxo-5-[(1E,4S)-7,8,8-trifluoro-4-hydroxy-4-methyl-1,7-octadien-1-yl]cyclopentyl}ethyl)thio]-1,3-thiazole-4-carboxylic acid], in the data set on male rats, the “digestive symptoms such as soft feces” value is listed as “No digestive symptoms”. The molecule also returned a clearance in data set [1] of 0.216 L/h/kg. Further, the “effect on the blood pressure” value in data set [2] is “no effect”. For the same molecule, the “Contractility of the urethral sphincter according to the compound concentration treated” value was 5 % of phenylephrine in the data set with urethral sphincter (0 nmol/L); −2 % of phenylephrine with urethral sphincter (1 nmol/L); −9 % of phenylephrine in the data set on urethral sphincter (10 nmol/L); −36 % of phenylephrine in the data set with urethral sphincter (100 nmol/L); −83 % of phenylephrine in the data set with urethral sphincter (1 μmol/L); −89 % of phenylephrine in the data set on urethral sphincter (10 μmol/L). In the data set on urethral sphincter (summary in words of Table 2), the “effect on the urethral sphincter” value was “relaxed the urethral sphincter”. Further, the “improvement in maximal urinary flow rate over the vehicle group” value in data set [3] is 61%.

Values taken from patent publication US9150528B2, “Compound having detrusor muscle-contracting activity and urethral sphincter muscle-relaxing activity” (ONO PHARMACEUTICAL CO., LTD., priority 2009, dated 2015).
